Earlier results, collected in patent US20250090612A1, “FEED ADDITIVE COMPOSITIONS AND METHODS OF USE” (PMI Nutrition, LLC, priority 2021, published 2025).

System: C. elegans
Conditions: C. elegans assay

## urolithins
  concentration needed to obtain a positive effect on muscle function: 50 µM
  concentration required to trigger the muscle function response: 11.4 µg/mL
